Test results from ChEMBL document CHEMBL4308864, “Targeting tyrosine kinase: Development of acridone - pyrrole - oxindole hybrids against human breast cancer” (2019).

Tests used:
Type in all cases: functional
[1] = test system: SK-MEL-5; experiment: Growth inhibition of human SK-MEL-5 cells assessed as cell growth at 10^-5 M incubated for 48 hrs by sulforhodamine B assay relative to control; conditions: SK-MEL-5, 48 h, read-out: Activity
[2] = test system: OVCAR-3; experiment: Growth inhibition of human OVCAR3 cells assessed as cell growth at 10^-5 M incubated for 48 hrs by sulforhodamine B assay relative to control; conditions: OVCAR-3, 48 h, read-out: Activity
[3] = test system: RXF 393; experiment: Growth inhibition of human RXF393 cells assessed as cell growth at 10^-5 M incubated for 48 hrs by sulforhodamine B assay relative to control; conditions: RXF 393, 48 h, read-out: Activity
[4] = test system: A549; experiment: Growth inhibition of human A549/ATCC cells assessed as cell growth at 10^-5 M incubated for 48 hrs by sulforhodamine B assay relative to control; conditions: A549, 48 h, read-out: Activity
[5] = test system: NCI-H460; experiment: Growth inhibition of human NCI-H460 cells assessed as cell growth at 10^-5 M incubated for 48 hrs by sulforhodamine B assay relative to control; conditions: NCI-H460, 48 h, read-out: Activity
[6] = test system: UACC-257; experiment: Growth inhibition of human UACC257 cells assessed as cell growth at 10^-5 M incubated for 48 hrs by sulforhodamine B assay relative to control; conditions: UACC-257, 48 h, read-out: Activity
[7] = test system: T47D; experiment: Growth inhibition of human T47D cells at 10^-5 M incubated for 48 hrs by sulforhodamine B assay relative to control; conditions: read-out: GI
[8] = test system: RPMI-8226; experiment: Growth inhibition of human RPMI8226 cells assessed as cell growth at 10^-5 M incubated for 48 hrs by sulforhodamine B assay relative to control; conditions: RPMI-8226, 48 h, read-out: Activity
[9] = test system: HCT-116; experiment: Growth inhibition of human HCT116 cells assessed as cell growth at 10^-5 M incubated for 48 hrs by sulforhodamine B assay relative to control; conditions: HCT-116, 48 h, read-out: Activity
[10] = test system: HL-60(TB); experiment: Growth inhibition of human HL-60(TB) cells assessed as cell growth at 10^-5 M incubated for 48 hrs by sulforhodamine B assay relative to control; conditions: HL-60, 48 h, read-out: Activity
[11] = test system: OVCAR-8; experiment: Growth inhibition of human OVCAR8 cells assessed as cell growth at 10^-5 M incubated for 48 hrs by sulforhodamine B assay relative to control; conditions: OVCAR-8, 48 h, read-out: Activity
[12] = test system: SK-OV-3; experiment: Growth inhibition of human SKOV3 cells assessed as cell growth at 10^-5 M incubated for 48 hrs by sulforhodamine B assay relative to control; conditions: SK-OV-3, 48 h, read-out: Activity
[13] = test system: MOLT-4; experiment: Growth inhibition of human MOLT4 cells assessed as cell growth at 10^-5 M incubated for 48 hrs by sulforhodamine B assay relative to control; conditions: MOLT-4, 48 h, read-out: Activity
[14] = test system: CCRF-CEM; experiment: Growth inhibition of human CCRF-CEM cells assessed as cell growth at 10^-5 M incubated for 48 hrs by sulforhodamine B assay relative to control; conditions: read-out: Activity
[15] = test system: MCF7; experiment: Growth inhibition of human MCF7 cells at 10^-5 M incubated for 48 hrs by sulforhodamine B assay relative to control; conditions: MCF7, 48 h, read-out: GI
[16] = test system: OVCAR-4; experiment: Growth inhibition of human OVCAR4 cells assessed as cell growth at 10^-5 M incubated for 48 hrs by sulforhodamine B assay relative to control; conditions: OVCAR-4, 48 h, read-out: Activity
[17] = test system: IGROV-1; experiment: Growth inhibition of human IGROV1 cells assessed as cell growth at 10^-5 M incubated for 48 hrs by sulforhodamine B assay relative to control; conditions: IGROV-1, 48 h, read-out: Activity
[18] = test system: MDA-MB-231; experiment: Growth inhibition of human MDA-MB-231 cells assessed as cell growth at 10^-5 M incubated for 48 hrs by sulforhodamine B assay relative to control; conditions: MDA-MB-231, 48 h, read-out: Activity
[19] = test system: NCI-H226; experiment: Growth inhibition of human NCI-H226 cells assessed as cell growth at 10^-5 M incubated for 48 hrs by sulforhodamine B assay relative to control; conditions: NCI-H226, 48 h, read-out: Activity
[20] = test system: Hs-578T; experiment: Growth inhibition of human Hs578T cells assessed as cell growth at 10^-5 M incubated for 48 hrs by sulforhodamine B assay relative to control; conditions: read-out: Activity
[21] = test system: SK-MEL-28; experiment: Growth inhibition of human SK-MEL-28 cells assessed as cell growth at 10^-5 M incubated for 48 hrs by sulforhodamine B assay relative to control; conditions: SK-MEL-28, 48 h, read-out: Activity
[22] = test system: SK-MEL-2; experiment: Growth inhibition of human SK-MEL-2 cells assessed as cell growth at 10^-5 M incubated for 48 hrs by sulforhodamine B assay relative to control; conditions: SK-MEL-2, 48 h, read-out: Activity
[23] = test system: SN12C; experiment: Growth inhibition of human SN12C cells assessed as cell growth at 10^-5 M incubated for 48 hrs by sulforhodamine B assay relative to control; conditions: read-out: Activity
[24] = test system: HCT-15; experiment: Growth inhibition of human HCT15 cells assessed as cell growth at 10^-5 M incubated for 48 hrs by sulforhodamine B assay relative to control; conditions: HCT-15, 48 h, read-out: Activity
[25] = test system: 786-0; experiment: Growth inhibition of human 786-0 cells assessed as cell growth at 10^-5 M incubated for 48 hrs by sulforhodamine B assay relative to control; conditions: 786-0, 48 h, read-out: Activity
[26] = test system: PC-3; experiment: Growth inhibition of human PC3 cells assessed as cell growth at 10^-5 M incubated for 48 hrs by sulforhodamine B assay relative to control; conditions: PC-3, 48 h, read-out: Activity
[27] = test system: HCC 2998; experiment: Growth inhibition of human HCC2998 cells assessed as cell growth at 10^-5 M incubated for 48 hrs by sulforhodamine B assay relative to control; conditions: HCC 2998, 48 h, read-out: Activity

SMILES: O=C1NC(=O)C(=Cc2cccn2CCCn2c3ccccc3c(=O)c3ccccc32)C(=O)N1
- growth at 10 µM [1]: 95.2%
- growth at 10 µM [2]: 112%
- growth at 10 µM [3]: 95.9%
- growth at 10 µM [4]: 94.6%
- growth at 10 µM [5]: 105%
- growth at 10 µM [6]: 102%
- inhibition of growth at 10 µM [7]: 15%
- growth at 10 µM [8]: 88%
- growth at 10 µM [9]: 86%
- growth at 10 µM [10]: 94%
- growth at 10 µM [11]: 101%
- growth at 10 µM [12]: 98.7%
- growth at 10 µM [13]: 93.7%
- growth at 10 µM [14]: 92.7%
- inhibition of growth at 10 µM [15]: 12%
- growth at 10 µM [16]: 104%
- growth at 10 µM [17]: 101%
- growth at 10 µM [18]: 99.4%
- growth at 10 µM [19]: 96.3%
- growth at 10 µM [20]: 115%
- growth at 10 µM [21]: 110%
- growth at 10 µM [22]: 109%
- growth at 10 µM [23]: 101%
- growth at 10 µM [24]: 96.5%
- growth at 10 µM [25]: 96.3%
- growth at 10 µM [26]: 98.9%
- growth at 10 µM [27]: 104%

SMILES: O=C1NC(=O)C(=Cc2cccn2CCCCCn2c3ccccc3c(=O)c3ccccc32)C(=O)N1
- growth at 10 µM [1]: 98.7%
- growth at 10 µM [2]: 105%
- growth at 10 µM [3]: 110%
- growth at 10 µM [4]: 100%
- growth at 10 µM [5]: 108%
- growth at 10 µM [6]: 104%
- inhibition of growth at 10 µM [7]: 13%
- growth at 10 µM [8]: 92%
- growth at 10 µM [9]: 82.2%
- growth at 10 µM [10]: 92.2%
- growth at 10 µM [11]: 102%
- growth at 10 µM [12]: 108%
- growth at 10 µM [13]: 93.3%
- growth at 10 µM [14]: 100%
- inhibition of growth at 10 µM [15]: 15%
- growth at 10 µM [16]: 99.8%
- growth at 10 µM [17]: 99.4%
- growth at 10 µM [18]: 116%
- growth at 10 µM [19]: 99.2%
- growth at 10 µM [20]: 106%
- growth at 10 µM [21]: 111%
- growth at 10 µM [22]: 107%
- growth at 10 µM [23]: 106%
- growth at 10 µM [24]: 92.8%
- growth at 10 µM [25]: 99%
- growth at 10 µM [26]: 91%
- growth at 10 µM [27]: 105%

SMILES: O=C1Nc2ccccc2/C1=C/c1cccn1CCCCn1c2ccccc2c(=O)c2ccccc21
- growth at 10 µM [1]: 38.6%
- growth at 10 µM [2]: 86.7%
- growth at 10 µM [3]: 88.1%
- growth at 10 µM [4]: 86.3%
- growth at 10 µM [5]: 93.7%
- growth at 10 µM [6]: 105%
- inhibition of growth at 10 µM [7]: 95%
- growth at 10 µM [8]: 33.5%
- growth at 10 µM [9]: 74.2%
- growth at 10 µM [10]: 60.2%
- growth at 10 µM [11]: 58.8%
- growth at 10 µM [12]: 94.6%
- growth at 10 µM [13]: 47.7%
- growth at 10 µM [14]: 52.8%
- inhibition of growth at 10 µM [15]: 96%
- growth at 10 µM [16]: 65.8%
- growth at 10 µM [17]: 77.3%
- growth at 10 µM [18]: 64.7%
- growth at 10 µM [19]: 75.2%
- growth at 10 µM [20]: 86.3%
- growth at 10 µM [21]: 105%
- growth at 10 µM [22]: 84%
- growth at 10 µM [23]: 97.9%
- growth at 10 µM [24]: 31.7%
- growth at 10 µM [25]: 97%
- growth at 10 µM [26]: 55.1%
- growth at 10 µM [27]: 40.5%

SMILES: O=C1NC(=O)C(=Cc2cccn2CCCCCCn2c3ccccc3c(=O)c3ccccc32)C(=O)N1
- growth at 10 µM [1]: 85.7%
- growth at 10 µM [2]: 103%
- growth at 10 µM [3]: 106%
- growth at 10 µM [4]: 95.6%
- growth at 10 µM [5]: 101%
- growth at 10 µM [6]: 103%
- inhibition of growth at 10 µM [7]: 25%
- growth at 10 µM [8]: 73.9%
- growth at 10 µM [9]: 71.2%
- growth at 10 µM [10]: 91.3%
- growth at 10 µM [11]: 93%
- growth at 10 µM [12]: 99.8%
- growth at 10 µM [13]: 79.6%
- growth at 10 µM [14]: 93.8%
- inhibition of growth at 10 µM [15]: 24%
- growth at 10 µM [16]: 95.4%
- growth at 10 µM [17]: 91.5%
- growth at 10 µM [18]: 94.6%
- growth at 10 µM [19]: 89.5%
- growth at 10 µM [20]: 106%
- growth at 10 µM [21]: 111%
- growth at 10 µM [22]: 107%
- growth at 10 µM [23]: 100%
- growth at 10 µM [24]: 90.3%
- growth at 10 µM [25]: 97.9%
- growth at 10 µM [26]: 87.7%
- growth at 10 µM [27]: 101%

SMILES: O=C1NC(=O)C(=Cc2cccn2CCCCn2c3ccccc3c(=O)c3ccccc32)C(=O)N1
- growth at 10 µM [1]: 73.8%
- growth at 10 µM [2]: 96.6%
- growth at 10 µM [3]: 81.4%
- growth at 10 µM [4]: 94.6%
- growth at 10 µM [5]: 90.2%
- growth at 10 µM [6]: 91.4%
- inhibition of growth at 10 µM [7]: 43%
- growth at 10 µM [8]: 49.4%
- growth at 10 µM [9]: 76.7%
- growth at 10 µM [10]: 60.1%
- growth at 10 µM [11]: 86.4%
- growth at 10 µM [12]: 100%
- growth at 10 µM [13]: 70.4%
- growth at 10 µM [14]: 64.1%
- inhibition of growth at 10 µM [15]: 43%
- growth at 10 µM [16]: 87.2%
- growth at 10 µM [17]: 72.1%
- growth at 10 µM [18]: 82.5%
- growth at 10 µM [19]: 88.7%
- growth at 10 µM [20]: 85.1%
- growth at 10 µM [21]: 95.8%
- growth at 10 µM [22]: 92.9%
- growth at 10 µM [23]: 86.6%
- growth at 10 µM [24]: 81.4%
- growth at 10 µM [25]: 86.6%
- growth at 10 µM [26]: 86.3%
- growth at 10 µM [27]: 100%
